From patent US20140038953A1, “COMPOSITIONS AND METHODS FOR CARDIOVASCULAR DISEASE” (THE GENERAL HOSPITAL CORPORATION, priority 2011, published 2014)
Entries after “also recorded” stand apart in the source; their conditions may differ. Marks after values point to notes of the source that are not given here.

Key:
Assay type in all cases: in vivo
LDLR−/− mice [1] = assay: Blood biochemical analysis in LDLR−/− mice on high fat diet
Protocol: (§1) Female mice deficient for the low density lipoprotein receptor (LDLR^−/−) on a C57BL/6 background with appropriate control mice mice (eight weeks of age) were obtained from Jackson Laboratories (Bar Harbor, Me.). Animals were fed a western style diet formulated to match Paigen's Atherogenic Rodent Diet (42% fat, 0.15% cholesterol, 19.5% casein; Research Diets Inc., New Brunswick, N.J.).
(§2) […], white blood count, hematocrit, hemoglobin, and platelets were analyzed using a HemaTrue™ Hematology Analyzer (Heska AG, Switzerland). Urea nitrogen, glucose, alkaline phosphatase, total protein, alanine transaminase and creatinine were determined using a Spotchem EZ SP-4430 POCT analyzer (Arkray, Inc., Kyoto, Japan). HDL and LDL levels were determined using a fluorescence quantification kit (K613-100, Biovision, Mountain View, Calif.)

MGP−/− mice = assay: Aortic calcification in MGP−/− mice (Alizarin red, OsteoSense); conditions: for aortic tissue calcium (Alizarin red staining): 28 days old
Protocol: MGP−/− mice were treated with either vehicle or the small molecule BMP type I receptor inhibitor compound 13 (2.5 mg/kg once daily IP) from day 1 to 28. Compound 13 is used as a BMP inhibitor positive control compound in these experiments. Whole aortas were harvested for phospho-Smad 1/5/8 (P-Smad) immunohistochemistry, a marker of BMP signaling, and for Alizarin Red staining of calcium. Osteogenic activity in aortas was visualized ex vivo by the uptake of a fluorescent bisphosphonate imaging probe. MGP−/− mice were also treated with vehicle or compound 13 to ascertain if inhibition of BMP signaling could impact survival, using Kaplan-Meier and Cox regression analysis.
MGP−/− mice were treated with intraperitoneal (IP) injections of either vehicle or compound 13 at 2.5 mg/kg/day from day 1-28. At day 28, aortas were harvested for both histology and RNA isolation. […] To further quantify aortic calcium, a fluorescent bisphosphonate agent that specifically binds to hydroxyapatite (OsteoSense 680 nm, Perkin Elmer) was used. (Aikawa E, et al. Multimodality molecular imaging identifies proteolytic and osteogenic activities in early aortic valve disease. Circulation. 2007; 115(3):377-386 and Zaheer A, et al. In vivo near-infrared fluorescence imaging of osteoblastic activity. Nature biotechnology. 2001; 19(12):1148-1154.) MGP−/− mice at 27 days of age treated with vehicle or compound 13 received OsteoSense via tail vein, and 24 h later, aortas were harvested for imaging. […] The reduction in BMP signaling and aortic calcification observed with compound 13 treatment of MGP−/− mice was associated with a >5-fold reduction in aortic Wnt3a gene expression, implicating the Wnt signaling pathway as an important mediator of BMP-dependent osteogenic differentiation (P<0.01).
MGP−/− mice were treated with vehicle (n=7), compound 13 (2.5 mg/kg/day IP, n=6), or ALK3-Fc (2 mg/kg QOD IP, n=4) beginning on day 1 after birth. At day 27, mice were injected via the tail vein with a fluorescent bisphosphonate probe (Osteosense 680 nm, 2 nmol per mouse) that targets tissue calcification. Twenty-four hours later, aortae were harvested and imaged.

LDLR−/− mice [2] = assay: Vascular inflammation / macrophage activity in LDLR−/− mice (Prosense, MAC2); conditions: for vascular inflammation / macrophage activity (Prosense): high fat diet 20 weeks, 2.5 mg/kg ip daily, vs vehicle, 2.5 mg/kg
Protocol: Fluorescence reflectance imaging (FRI), was performed as previously described. […] After dissection, aortae were subjected to ex vivo near infrared fluorescence reflectance imaging using an Odyssey Imaging System (LI-COR Biotechnology, Lincoln, Nebr.), with integrated signal intensities determined for regions of interest using software version 3.0.16.
For immunofluorescence, frozen sections were post-fixed in cold methanol and incubated with polyclonal antibodies specific for p-SMAD1/5/8 (1:100, Cell Signaling, Danvers, Mass.) or MAC2 (1:100, Cedarlane, Burlington, ON) followed by FITC labeled Goat Anti-Rabbit IgG or Rhodamine Goat Anti-Rat IgG (both Jackson Immuno Research, West Grove, Pa.), respectively.
Mice were injected with Osteosense (to label sites of bone-forming activity via osteoblast binding of this probe) and Prosense (to label sites of macrophage-mediated inflammation). Aortae were explanted and subjected to fluorescence reflectance imaging (LICOR Odyssey imager).
Inflammatory activity, a surrogate of atherosclerotic plaque burden, was assessed by near-IR fluorescence of Prosense (fluor-cathepsin substrate) at […]. Ten individual mice were used in each treatment group.
Inflammatory activity, a surrogate of atherosclerotic plaque burden, was assessed by integrated intensity of near-IR fluorescence of Prosense (fluor-cathepsin substrate) at […].
Each treatment group consisted of a total of 10 mice. After 4 weeks of atherogenic diet and drug or vehicle treatment, the animals were sacrificed. The frontal plane sections of the aortic arch were dissected out and stained for macrophage marker (MAC2) and counterstained with DAPI.

C57BL/6 mice = assay: Blood biochemical analysis in WT mice fed a high fat diet
Protocol: as §1, §2

[3] = LDLR−/− mice, HFD 20 weeks, in words
[4] = female LDLR−/− mice, high fat diet 6 weeks, compound 13 2.5 mg/kg ip daily, ALK3-Fc 2 mg/kg ip every other day, mean ± SEM
[5] = female LDLR−/− mice, high fat diet 20 weeks, 2.5 mg/kg ip daily, mean ± SEM
[6] = high fat diet and treatment 6 weeks, compound 13 2.5 mg/kg ip daily, ALK3-Fc 2 mg/kg ip every other day
[7] = female C57BL/6 WT mice, high fat diet 30 weeks, 2.5 mg/kg ip daily, mean ± SEM

c1ccc2c(-c3cnn4cc(-c5ccc(N6CCNCC6)cc5)cnc34)ccnc2c1 [Compound 13, 4-[6-(4-piperazin-1-ylphenyl)pyrazolo[1,5-a]pyrimidin-3-yl]quinoline]
serum alanine transaminase (ALT) levels vs vehicle (LDLR−/− mice [1]; LDLR−/− mice on HFD, in words): reduced
serum alkaline phosphatase (ALP) levels vs vehicle (LDLR−/− mice [1]; LDLR−/− mice on HFD, in words): reduced
HDL cholesterol levels vs vehicle (LDLR−/− mice [1]; [3]): not altered
serum LDL cholesterol levels vs vehicle (LDLR−/− mice [1]; [3]): lower serum LDL cholesterol levels
total cholesterol levels vs vehicle (LDLR−/− mice [1]; [3]): reduced total cholesterol levels
serum LDL cholesterol levels vs vehicle (LDLR−/− mice [1]; LDLR−/− mice, HFD 20 weeks, in words, listed as compound 13): reduced total cholesterol levels and LDL levels
Alanine transaminase (LDLR−/− mice [1]; [4]): 233 ± 56 IU/L
Alkaline phosphatase (LDLR−/− mice [1]; [4]): 112 ± 20 IU/L
Blood urea nitrogen (LDLR−/− mice [1]; [4]): 24 ± 2 mg/dL
Cholesterol (LDLR−/− mice [1]; [4]): 1553 ± 77*^,§ mg/dl
Creatinine (LDLR−/− mice [1]; [4]): 0.5 ± 0.1 mg/dL
Glucose (LDLR−/− mice [1]; [4]): 259 ± 20 mg/dL
Hemoglobin (LDLR−/− mice [1]; [4]): 12.9 ± 1.5 g/dL
Total protein (LDLR−/− mice [1]; [4]): 5.1 ± 0.1 g/dL
Triglycerides (LDLR−/− mice [1]; [4]): 112 ± 15 mg/dL
Alanine transaminase (LDLR−/− mice [1]; [5]): 130 ± 21‘ IU/L
Alkaline phosphatase (LDLR−/− mice [1]; [5]): 84 ± 11 IU/L
Blood urea nitrogen (LDLR−/− mice [1]; [5]): 25 ± 2 mg/dL
Cholesterol (LDLR−/− mice [1]; [5]): 1401 ± 87 mg/dL
Creatinine (LDLR−/− mice [1]; [5]): 0.4 ± 0.0 mg/dL
Glucose (LDLR−/− mice [1]; [5]): 230 ± 19 mg/dL
HDL (LDLR−/− mice [1]; [5]): 73.8 ± 26.5 mg/dL
Hemoglobin (LDLR−/− mice [1]; [5]): 12.9 ± 0.8 g/dL
LDL (LDLR−/− mice [1]; [5]): 1166.3 ± 257.3 mg/dL
Total protein (LDLR−/− mice [1]; [5]): 4.3 ± 0.4 g/dL
Triglycerides (LDLR−/− mice [1]; [5]): 135 ± 16 mg/dL
aortic tissue calcium (Alizarin red staining) (MGP−/− mice; treated from day 1): reduction in tissue calcium levels
aortic tissue calcium (Alizarin red staining) (MGP−/− mice; treated from day 1, listed as compound 13): less calcification; also recorded: reduced vessel calcification
arterial calcification by OsteoSense fluorescence (MGP−/− mice; day 1-28, compound 13 2.5 mg/kg/day IP, ALK3-Fc 2 mg/kg QOD IP): reduction of arterial calcification; also recorded: marked reduction in arterial calcification; also recorded: reduces vascular calcification
reduction in aortic osteogenic activity compared to vehicle-treated controls (MGP−/− mice; fluorescent bisphosphonate probe, n=6 in each group): 81%
aortic osteogenic activity, normalized average intensity ±SEM (MGP−/− mice; vehicle 1.0±0.10): 0.19±0.05
MAC2 staining of aortic arch (LDLR−/− mice [2]; atherogenic diet and treatment 4 weeks, compound 13 2.5 mg/kg IP daily, ALK3-Fc 2 mg/kg IP every other day): decreased staining for MAC2
vascular inflammation / macrophage activity (Prosense) (LDLR−/− mice [2]): marked reduction in vascular inflammation; also recorded: severely diminished evidence of macrophage activity
vascular inflammation / macrophage activity (Prosense) (LDLR−/− mice [2]; listed as BMP inhibitor positive control compound): can reduce vascular calcification and vascular inflammation
foam cell accumulation / macrophage burden (MAC2) (LDLR−/− mice [2]; [6]): inhibited foam cell accumulation
macrophage / cathepsin activity in aorta (Prosense) (LDLR−/− mice [2]; [6]): as did treatment with compound 13; also recorded: significantly reduced; also recorded: significantly inhibited
Alanine transaminase (C57BL/6 mice; [7]): 159 ± 19 IU/L
Alkaline phosphatase (C57BL/6 mice; [7]): 109 ± 8 IU/L
Blood urea nitrogen (C57BL/6 mice; [7]): 25 ± 1 mg/dL
Cholesterol (C57BL/6 mice; [7]): 183 ± 6 mg/dL
Creatinine (C57BL/6 mice; [7]): 0.5 ± 0.0 mg/dL
Glucose (C57BL/6 mice; [7]): 311 ± 12 mg/dL
Hemoglobin (C57BL/6 mice; [7]): 13.5 ± 1.0 g/dL
Total protein (C57BL/6 mice; [7]): 4.7 ± 0.2 g/dL
Triglycerides (C57BL/6 mice; [7]): 82 ± 21 mg/dL
total serum cholesterol vs vehicle (C57BL/6 mice; wild-type animals on a HFD, in words): reduced total serum cholesterol
